Where two headings read alike, the source gives them in different places. Residues, ends and D or L forms follow the SMILES beside them. *: point of attachment. Cbz = O=C(OCc1ccccc1)*; CH2F = FC*
Assays:
SK-MEL-110 [1] = tested on: SK-MEL-110
SK-MEL-110 [2] = assay: Proliferation of SK-MEL-110 on collagen-IV with FGF-2 (cell count); format: cell-based, human; conditions: 500 μg/ml, 48 h, FGF-2 10 ng/ml
Method: Representative images are reported. […] Three independent experiments were performed.

GST-Full length survivin = GST-Full length survivin (Homo sapiens, UniProt O15392); assay: Solid phase assay, GST-fusion protein; format: binding; set-up: Full length survivin and both N-terminus (Met1-Gly99) or C-terminus (Lys90-Asp142) were PCR amplified and cloned; made in house; host or cells: E. coli BL21(DE3)pLysS
Chain of GST-Full length survivin (O15392 whole entry, the tested form may be a part): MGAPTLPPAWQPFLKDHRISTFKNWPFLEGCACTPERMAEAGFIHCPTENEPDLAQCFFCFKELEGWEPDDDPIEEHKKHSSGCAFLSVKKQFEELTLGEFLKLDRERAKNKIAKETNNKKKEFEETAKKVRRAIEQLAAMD
Method: (§1) Three independent experiments were performed.
(§2) Full length survivin and both N-terminus (Met1-Gly99) or C-terminus (Lys90-Asp142) were PCR amplified and cloned, using EcoRI and BamHI restriction sites, in pGex6P2 (GE Healthcare) for expression of GST fusion proteins in E. coli BL21(DE3)pLysS (PROMEGA, Southampton, United Kingdom).
(§3) Briefly, microtiter plates (Costar, Cambridge, MA) were coated with 175 nM (100 μl/well) recombinant GST-fusion proteins diluted in AC7.5 buffer for 4 h at RT. […] After washing four times and incubation for 1 h at RT with 100 μl/well Vectastain-ABC Reagent (Vector Laboratories, Burlingame, CA), wells were stained with the ELISA Amplification System (Invitrogen, Carlsbad, CA) according to manufacturer's instructions and absorption at 495 nm (A495) was determined. Specific binding was computed by subtracting nonspecific from total binding at each concentration. Curve fit was carried out according to the following one-site specific bind equation (GraphPad Prism-4 software):(1) [drawing 1]
(§4) where X is ligand concentration, Y is the specific binding, Bmax is the maximum specific binding in the same units as Y, Kd is the equilibrium binding constant, in the same units as X.

[3] = molecular target: T1, GST-C-terminus-survivin (Lys90-Asp142) (Homo sapiens, UniProt O15392); assay: Solid phase assay, GST-fusion protein; format: binding
T1 construct: C-terminus (Lys90-Asp142); made in house; host or cells: E. coli BL21(DE3)pLysS
T1 sequence (O15392 90-142): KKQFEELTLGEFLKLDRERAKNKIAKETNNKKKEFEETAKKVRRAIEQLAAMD
Method: as §1, §2, §3, §4

SK-MEL-110 [4] = assay: RGDS anti-proliferative effect after pre-treatment with caspase inhibitor; format: cell-based, human; conditions: Z-VAD-FMK 50 μM, 2 h pre-treatment, then RGDS; p < 0.005 vs FGF-2 in the presence of Z-VAD-FMK
survivin = tested on: survivin; set-up: method as in PMID 17389612, PMID 18537980; conditions: wide range of tumor cells; cited from earlier work
SK-MEL-110 [5] = assay: Peptide internalization in SK-MEL-110 by FACS (PE-avidin); conditions: biotinylated peptide
active caspase-3 = assay: Caspase-3 activation by confocal microscopy; format: cell-based, human; conditions: 500 μg/ml, 48 h, FGF-2; anti-active caspase-3 antibody

Method for SK-MEL-110 and HUVEC: Cytoplasmic lysates were spotted onto nitrocellulose, blocked with 5% milk in TPBS (0.1% Tween 20 in PBS) and incubated for 1 h at RT with a Vectastain ABC-peroxidase kit (Vector) followed by chemiluminescence reaction and exposure to Kodak film (Eastman Kodak). Interaction was quantified by densitometry (GS 710; Bio-Rad) and analyzed using the "Quantity one" software (Bio-Rad).
Three independent experiments were carried out.

## NC(N)=NCCC[C@H](N)C(=O)NCC(=O)N[C@@H](CC(=O)O)C(=O)N[C@@H](CO)C(=O)O [RGDS, Arg-Gly-Asp-Ser]
SK-MEL-110 [1]
  internalization kinetics: in a time-dependent manner
SK-MEL-110 [2]; collagen-IV 50 μg/ml, mean ± SD of 5 experiments in duplicate, RGDS p < 0.005
  inhibition of FGF-2-induced proliferation: 46 ± 16%
GST-Full length survivin
  Kd: 27.5 µM
[3]
  Kd: 30 µM
SK-MEL-110 and HUVEC
  internalization in melanoma cells vs HUVEC: markedly higher in melanoma cells vs HUVEC

## COC(=O)C[C@H](NC(=O)[C@H](C)NC(=O)[C@@H](NC(=O)OCc1ccccc1)C(C)C)C(=O)CF [Z-VAD-FMK] (Cbz-Val-Ala-Asp(OMe)-CH2F)
SK-MEL-110 [4]
  effect on RGDS anti-proliferative action: significantly abolished the RGDS anti-proliferative effect

## Cc1ccc(-c2cc(C(F)(F)F)nn2-c2ccc(S(N)(=O)=O)cc2)cc1 [colecoxib]
survivin
  survivin expression: down-regulate survivin expression

## Arg-Gly-Glu-Ser [RGES, RGES as control (Sigma-Aldrich)]
SK-MEL-110 [2]; collagen-IV
  anti-proliferative effect: no anti-proliferative effect
SK-MEL-110 [5]; 24 h, RGES less than RGDS
  internalization relative to RGDS (less than RGDS): 25%
SK-MEL-110 [5]; 24 h incubation, PE-avidin, FACS, three independent experiments
  positive cells (internalization): about 30%
SK-MEL-110 [5]; 2, 6, 16 and 24 h, FACS
  internalization kinetics: internalized with slower kinetics
Active caspase-3
  caspase-3 activation: no effect on caspase-3 activation

— article PMC2867821 (Molecular Cancer, 2010)
